Assay results from PubChem BioAssay AID2060607 (Molecular Pharmacology Branch, DTP, NCI, 2025).
“And” between values parts separate entries of the source, which are not always exact repeats. Equal entries are not always repeated.

System: 876862-298-R-J1-PDC complex spheroids, viability % test/control
Test: Anticancer human tumor 876862-298-R-J1-PDC patient-derived endometrial carcinoma cell line growth inhibition [CLK]
Details: for viability, T/C: stronger effect = lower value
Procedure, shortened: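 Multi-cell-type spheroids combined patient-derived tumor cells with HUVEC endothelial cells and human mesenchymal stem cells. Paired agents were dosed in half-log steps down from about clinical Cmax, or from 10 microM where Cmax was unknown.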

[1] = curve of first compound, second compound 0.0316 µM
[2] = curve of first compound, second compound 0.1 µM
[3] = curve of first compound, second compound 0.316 µM
[4] = curve of first compound, second compound 1 µM
[5] = curve of first compound, second compound 3.16 µM
[6] = curve of first compound, second compound 10 µM
[7] = second compound 0.0316 µM, first compound 0.0316 µM
[8] = second compound 0.0316 µM, first compound 0.1 µM
[9] = second compound 0.0316 µM, first compound 0.316 µM
[10] = second compound 0.0316 µM, first compound 1 µM
[11] = second compound 0.1 µM, first compound 0.0316 µM
[12] = second compound 0.1 µM, first compound 0.1 µM
[13] = second compound 0.1 µM, first compound 0.316 µM
[14] = second compound 0.1 µM, first compound 1 µM
[15] = second compound 0.316 µM, first compound 0.0316 µM
[16] = second compound 0.316 µM, first compound 0.1 µM
[17] = second compound 0.316 µM, first compound 0.316 µM
[18] = second compound 0.316 µM, first compound 1 µM
[19] = second compound 1 µM, first compound 0.0316 µM
[20] = second compound 1 µM, first compound 0.1 µM
[21] = second compound 1 µM, first compound 0.316 µM
[22] = second compound 1 µM, first compound 1 µM
[23] = second compound 3.16 µM, first compound 0.0316 µM
[24] = second compound 3.16 µM, first compound 0.1 µM
[25] = second compound 3.16 µM, first compound 0.316 µM
[26] = second compound 3.16 µM, first compound 1 µM
[27] = second compound 10 µM, first compound 0.0316 µM
[28] = second compound 10 µM, first compound 0.1 µM
[29] = second compound 10 µM, first compound 0.316 µM
[30] = second compound 10 µM, first compound 1 µM
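Further: spheroids exposed to drugs for 7 days before readout.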
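Wherever viability, T/C is given: 100% = DMSO vehicle control wells.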

In the case of `Cn1ncnc1[C@H]1c2n[nH]c(=O)c3cc(F)cc(c23)N[C@@H]1c1ccc(F)cc1`, the viability, T/C (compound 0.000316 µM) is reported as 110% and 102%, the viability, T/C (compound 0.001 µM) is reported as 91.2% and 96.9% and the viability, T/C (compound 0.00316 µM) is reported as 106% and 96.8%. The viability, T/C (compound 0.01 µM) was 103% and 105%, the viability, T/C (compound 0.0316 µM) was 107% and 114% and the viability, T/C (compound 0.1 µM) was 107% and 101%. The IC50 (curve of compound) was over 0.1 µM.

Compound `CCc1c2c(nc3ccc(O)cc13)-c1cc3c(c(=O)n1C2)COC(=O)[C@]3(O)CC` + CNC(=O)c1ccc(Nc2nc(OC3CCCC3)c3c(-c4ccc5nc(C)oc5c4)c[nH]c3n2)c(OC)c1 has an IC50 [1] of under 0.00316 µM, an IC50 [2] of under 0.00316 µM and an IC50 [3] of under 0.00316 µM. For the same compound, the IC50 [4] was under 0.00316 µM, the IC50 [5] was under 0.00316 µM and the IC50 [6] was under 0.00316 µM. It also gave a viability, T/C (second compound 0.0316 µM, first compound 0.00316 µM) of 24%, a viability, T/C (second compound 0.0316 µM, first compound 0.01 µM) of 9.43% and a viability, T/C [7] of 8.16%. It also gave a viability, T/C [8] of 5.8%, a viability, T/C [9] of 5.07% and a viability, T/C [10] of 3.65%. It also gave a viability, T/C (second compound 0.1 µM, first compound 0.00316 µM) of 16.5%, a viability, T/C (second compound 0.1 µM, first compound 0.01 µM) of 7.94% and a viability, T/C [11] of 7.35%. For the same compound, the viability, T/C [12] was 4.4%, the viability, T/C [13] was 4.15% and the viability, T/C [14] was 3.49%. It also gave a viability, T/C (second compound 0.316 µM, first compound 0.00316 µM) of 14.8%, a viability, T/C (second compound 0.316 µM, first compound 0.01 µM) of 6.28% and a viability, T/C [15] of 5.77%. It also gave a viability, T/C [16] of 4.17%, a viability, T/C [17] of 4.42% and a viability, T/C [18] of 3.57%. It also gave a viability, T/C (second compound 1 µM, first compound 0.00316 µM) of 9.55%, a viability, T/C (second compound 1 µM, first compound 0.01 µM) of 5.23% and a viability, T/C [19] of 4.77%. The viability, T/C [20] was 4.25%, the viability, T/C [21] was 3.64% and the viability, T/C [22] was 2.78%. The viability, T/C (second compound 3.16 µM, first compound 0.00316 µM) was 7.99%, the viability, T/C (second compound 3.16 µM, first compound 0.01 µM) was 5.52% and the viability, T/C [23] was 4.06%. It also gave a viability, T/C [24] of 4.3%, a viability, T/C [25] of 3.4% and a viability, T/C [26] of 2.05%. The viability, T/C (second compound 10 µM, first compound 0.00316 µM) was 6.88%, the viability, T/C (second compound 10 µM, first compound 0.01 µM) was 4.97% and the viability, T/C [27] was 5.13%. For the same compound, the viability, T/C [28] was 4.85%, the viability, T/C [29] was 3.25% and the viability, T/C [30] was 1.96%.

In the case of `CCN1CCN(Cc2ccc(Nc3ncc(F)c(-c4cc(F)c5nc(C)n(C(C)C)c5c4)n3)nc2)CC1`, the viability, T/C (compound 0.00316 µM) is reported as 91.2% and 109%, the viability, T/C (compound 0.01 µM) is reported as 86.9% and 101% and the viability, T/C (compound 0.0316 µM) is reported as 86.5% and 84.8%. The viability, T/C (compound 0.1 µM) was 68.3% and 76.1%, the viability, T/C (compound 0.316 µM) was 52.7% and 61.5% and the viability, T/C (compound 1 µM) was 46.3% and 48.5%. The IC50 (curve of compound) was 0.483 µM and 0.891 µM.

`CC1COCCN1c1cc(C2(S(C)(=N)=O)CC2)nc(-c2ccnc3[nH]ccc23)n1` (stereo not drawn) + CNC(=O)c1ccc(Nc2nc(OC3CCCC3)c3c(-c4ccc5nc(C)oc5c4)c[nH]c3n2)c(OC)c1 gave an IC50 [1] of 2.2 µM, an IC50 [2] of under 0.0316 µM and an IC50 [3] of under 0.0316 µM. For the same compound, the IC50 [4] was under 0.0316 µM, the IC50 [5] was under 0.0316 µM and the IC50 [6] was under 0.0316 µM. The viability, T/C [7] was 70.2%, the viability, T/C [8] was 84.7% and the viability, T/C [9] was 75.5%. For the same compound, the viability, T/C [10] was 69.8%, the viability, T/C (second compound 0.0316 µM, first compound 3.16 µM) was 40.9% and the viability, T/C (second compound 0.0316 µM, first compound 10 µM) was 22.5%. It also gave a viability, T/C [11] of 47.2%, a viability, T/C [12] of 50.9% and a viability, T/C [13] of 42.7%. For the same compound, the viability, T/C [14] was 44.6%, the viability, T/C (second compound 0.1 µM, first compound 3.16 µM) was 24.3% and the viability, T/C (second compound 0.1 µM, first compound 10 µM) was 15%. It also gave a viability, T/C [15] of 43.8%, a viability, T/C [16] of 41.5% and a viability, T/C [17] of 39.1%. For the same compound, the viability, T/C [18] was 30%, the viability, T/C (second compound 0.316 µM, first compound 3.16 µM) was 20.5% and the viability, T/C (second compound 0.316 µM, first compound 10 µM) was 11.4%. The viability, T/C [19] was 34.4%, the viability, T/C [20] was 37.4% and the viability, T/C [21] was 28.3%. It also gave a viability, T/C [22] of 22.6%, a viability, T/C (second compound 1 µM, first compound 3.16 µM) of 13% and a viability, T/C (second compound 1 µM, first compound 10 µM) of 6.42%. The viability, T/C [23] was 29%, the viability, T/C [24] was 21% and the viability, T/C [25] was 17.2%. It also gave a viability, T/C [26] of 11.7%, a viability, T/C (second compound 3.16 µM, first compound 3.16 µM) of 8.18% and a viability, T/C (second compound 3.16 µM, first compound 10 µM) of 3.92%. The viability, T/C [27] was 22.4%, the viability, T/C [28] was 19.5% and the viability, T/C [29] was 14.1%. It also gave a viability, T/C [30] of 12.6%, a viability, T/C (second compound 10 µM, first compound 3.16 µM) of 7.52% and a viability, T/C (second compound 10 µM, first compound 10 µM) of 3.99%.
